{
  "source": "patent US12083134B2",
  "about": "“Anacardic acid for neural repair” (Vanderbilt University, priority 2018, dated 2024)",
  "key": {"IL-33 expression in OPCs": {"system": "IL-33 expression in OPCs", "assay": "q-PCR on the induction of IL-33 in OPCs cultured with AA", "format": "cell-based, rat", "conditions": "3 h, relative to GAPDH, vehicle = 1.00", "method": "The effect of AA on the expression of myelin genes, MBP, and IL-33 was examined. […] Natarajan et al., PLOS One, 11(3):e0152163 (2016); Sriram et al., Neurology, Abstract presented at the American Academy of Neurology, 2016 (2016). The studies were done in OPCs obtained from rat pups. OPCs were treated with AA (2.5 μM) for 3 hours and message levels were quantified using qPCR analysis. OPCs treated with AA induced the major myelin genes Mbp, Mog and Plp.\nThe expression of IL-33 induced by AA in OPCs was also examined. […] (FIG. 3). The data is expressed as fold change compared to the control protein GAPDH."}, "IL-33 protein in OPCs": {"system": "IL-33 protein in OPCs", "assay": "Western blot of IL-33 protein in OPCs (nuclear extracts) cultured with AA", "format": "cell-based, rat", "conditions": "for increase in the protein level of IL-33: OPCs", "method": "FIG. 5 (top) provides the results of Western blot studies showing increased expression of IL-33 in the presence of AA in OPCs. […] Because IL-33 is mainly in the nucleus, the Wester blots were done with nuclear extracts and Lamin was used as the control.\nIn addition, at a dose of 2.5 μM of AA, there was a 1.8 fold increase in the protein level of IL-33, and at a dose of 7.5 μM of AA, there was a 3.1 fold increase in the protein level of IL-33 (FIG. 5)."}, "[1]": {"system": "cuprizone induced demyelination", "assay": "Cuprizone induced model of demyelination, myelin staining of corpus callosum", "format": "in vivo, mice", "method": "Mice were administered cuprizone for nine weeks, and starting at week 7, mice were treated with 12.5 mg/kg AA daily for three additional weeks. Mice were sacrificed at the end of week 9. […] The data are expressed as the mean pixel intensity of LFB staining normalized to controls measured at two non-overlapping regions of the corpus callosum.\nFIG. 11 provides images showing the staining of myelin using LFB stain (top panel) and immunostaining with anti MBP antibodies (bottom panel) in coronal sections of the brain in a 9-week study of naïve (left), cuprizone treated (middle), and cuprizone+AA treated (12.5 mg/kg/day) mice where the cuprizone+AA treated mice were treated with AA in weeks 7-9 of the study. The Y axis represents the mean pixel intensity of staining normalized to controls for LFB and immunostaining for MBP.\nThe cuprizone induced model of demyelination is a model for toxic demyelination. Torkildsen et al., Acta Neurol Scand Suppl. 188:72-6 (2008); Bai et al., Exp Neurol, 283(Pt A): 330-40 (2016). Cuprizone induces extensive demyelination in large white matter tracts of the CNS. Because the corpus callosum is the largest white matter tract in the brain, it is often used to study demyelination/remyelination in the cuprizone model. In the cuprizone model, animals are fed with cuprizone that causes cell death of oligodendrocytes. […] Deshmukh et al., Nature, 502(7471):327-32 (2014); Magalon et al., Ann Neurol, 71(2):213-26 (2012). Since the model is non-immune mediated, neuro-reparative therapies which promote remyelination can be tested without the interference of markers of inflammation. Lassmann and Bradl, Acta Neuropathol, 133(2):223-44 (2017).\nThe efficacy of any potential drug is only apparent for a short period of time after cuprizone withdrawal and before the natural process of remyelination catches up. Following cuprizone withdrawal, there is complete remyelination after 6 weeks. Thus, a study was conducted where mice were administered cuprizone in their chow for nine weeks and either AA or a vehicle were administered with the cuprizone starting at 7 weeks. Previous studies have shown that chow mixed with 0.2% cuprizone causes wide spread demyelination and demyelination is seen in the corpus callosum after 6 to 8 weeks on cuprizone. At the beginning of week 7, mice received 12.5 mg/kg of AA dissolved in DMSO sc daily for an additional three weeks. Control mice received an equal volume of DMSO (vehicle). Equal numbers of mice (5/group) were sacrificed and the amount of myelin was determined by staining with luxol fast blue (“LFB”) (chemical stain for myelin) or by staining with anti MBP antibodies at the end of weeks 7, 8 and 9. […]"}, "[2]": {"system": "experimental allergic encephalitis (EAE)", "assay": "EAE treatment, AA from earliest onset of paralytic signs", "format": "in vivo, mice", "text": "The data is expressed as a percent area of myelin loss in three non-contiguous axial sections of the spinal cord; p<0.01 between treated and untreated groups when AA is given beginning day 0 or from the onset of symptoms.\nExperimental allergic encephalitis (“EAE”) is an autoimmune inflammatory demyelinating disease of the CNS. For experimental purposes, the disease is induced in animals by immunizing the animals with myelin antigens in adjuvant. […] Ten to twelve days after immunization, paralysis develops in the animals. The degree of paralysis is scored as follows: 1=limp tail, 2=ataxia of gait and paralysis of one or more limbs, 3=paralysis of two or more limbs, 4=weakness of all limbs, 5=death.\nTo determine if treatment with AA would promote recovery after paralytic attack, the experiment shown in FIG. 13 was repeated but treatment with AA was not initiated until the earliest sign of disease appeared which occurred between days 11 and 12 following the initial immunization with MOG antigen. In the experiment, 10 mice were administered 0.25 mg/kg AA a day in DMSO and 10 mice were administered DMSO (vehicle). In the 10 mice that received 0.25 mg/kg AA a day, there was no difference in the mean maximal severity of the disease when compared to vehicle treated mice. The mean maximal severity was 2.8 in the vehicle treated group and was 2.6 in the AA treated group. However, there was a rapid reversal of paralysis in the AA treated group.\nWhen AA was administered at the earliest onset of clinical signs of paralysis, the percent demyelination score in the AA treated group was 2.9. In comparison, in the vehicle treated group the percent demyelination score was 7.2 (P<0.01) (FIG. 15)."}},
  "data": [
    {"compound": "CCCCCCCCCCCCCCCc1cccc(O)c1C(=O)O", "note": "[AA, anacardic acid]", "values": [
      {"measurement": "Fold change of IL-33 expression", "setting": "IL-33 expression in OPCs; AA 2.5 μM", "result": 8.54, "unit": "fold"},
      {"measurement": "Fold change of IL-33 expression", "setting": "IL-33 expression in OPCs; AA 5 μM", "result": 4.77, "unit": "fold"},
      {"measurement": "increase in IL-33 protein expression (image analysis of gels, FIG. 5)", "setting": "IL-33 protein in OPCs; OPCs nuclear extracts, Lamin control, concentration not given", "result": 1.6, "unit": "fold"},
      {"measurement": "increase in the protein level of IL-33", "setting": "IL-33 protein in OPCs; AA 2.5 μM", "result": 1.8, "unit": "fold"},
      {"measurement": "increase in the protein level of IL-33", "setting": "IL-33 protein in OPCs; AA 7.5 μM", "result": 3.1, "unit": "fold"},
      {"measurement": "number of oligodendrocytes vs vehicle treated mice", "setting": "[1]; AA 12.5 mg/kg/day", "result": "no difference"},
      {"measurement": "increase in LFB staining of corpus callosum vs control mice", "setting": "[1]; end of week 9, three weeks of AA 12.5 mg/kg sc daily, P<0.02", "result": 10, "unit": "%"},
      {"measurement": "expression of myelin vs control mice", "setting": "[1]; end of weeks 7 and 8, one or two weeks of AA 12.5 mg/kg sc daily", "result": "no differences"},
      {"measurement": "increase in MBP staining (anti MBP antibodies) vs control mice", "setting": "[1]; week 9, AA 12.5 mg/kg/day weeks 7-9, P=0.02", "result": 17, "unit": "%"},
      {"measurement": "mean maximal severity (clinical score)", "setting": "[2]; AA 0.25 mg/kg a day from earliest sign of disease (days 11-12), vehicle 2.8", "result": 2.6},
      {"measurement": "percent demyelination score", "setting": "[2]; AA 0.25 mg/kg/day from earliest onset of clinical signs, vehicle 7.2, P<0.01", "result": 2.9, "unit": "%"},
      {"measurement": "recovery from paralysis", "setting": "[2]; by day 24, AA 0.25 mg/kg a day from onset, one animal grade 2 weakness", "result": "all the other mice had fully recovered"}
    ]}
  ]
}
